Results as given in patent US7052834B1, “Tumor suppressor protein involved in death signaling, and diagnostics, therapeutics, and screening based on this protein” (St. Jude Children's Research Hospital, priority 1998, dated 2006).
Peptide text beside a SMILES is read from it. * marks the point of attachment. Cbz = O=C(OCc1ccccc1)*; CH2F = FC*

What was measured:
NB8 [1] = assay: Fas mAb-induced apoptosis in cells with programmed caspase-8 expression; type: cell-based, human; conditions: zVAD-fmk added prior to programmed expression of caspase-8
Method: (§1) FIGS. 8A, 8B, 8C, 8D, and 8E. Effects of retrovirus expression of caspase-8 in three different NB cell lines that are caspase-8 nulls. […] The caspase-8(DN) product migrates at a higher molecular weight due to an HA-tag attached to its carboxyl-terminus. B, C:Morphology of NB7/Casp8 cells 5 hours after treatment with TNFα and cycloheximide. Membrane blebbing (Nomarski view, B) and condensed chromatin (visualized by DAPI staining, C), characteristics of apoptotic cells, are clearly visible. D:Percentage of cells that are positive for cell surface annexin-V staining, another hallmark of apoptotic cells. The various cell lines and their treatment regimens are shown at the bottom. E: Apoptotic induction by Fas mAb in proliferating NB8 and NB10 cells stably expressing caspase-8 at a low level. Induction measured as percentage of cells that are TUNEL-positive. The various cell lines and their treatment regimens are shown at the bottom.
(§2) Apoptotic assays. Cells were collected for annexin V-FITC staining and FACS analysis after the culture media containing zVAD-fmk was removed and replaced with normal culture medium for 6 hours in NB8 and NB 10. […] Viable cells were determined by light and immunofluorescent microscopy after removal of the zVAD-fmk containing culture medium and incubation at 37° C. for 0.5, 1, 2, 4 and 6 hrs for the pMSCV-Casp 8(wt) and DN transduced NB8 and NB10 cells. […]

NB10 [2] = assay: as above; type: cell-based, human; conditions: zVAD-fmk added prior to programmed expression of caspase-8
Method: as §1, §2

TNFR p55 (human) = TNFR p55 (human) (UniProt P19438); assay: cell-based or functional assay
NB11 = assay: 5-aza-cytidine treatment: caspase-8 western blot; type: cell-based, human; conditions: 10–50 μM for 2–3 days
From the text: (§3) Caspase-8 western blot analysis of cell lysates from the NB8, NB10, and NB14 cell lines with (+) or without (−) 5-aza-2′-deoxycytidine. […] We therefore examined DNA methylation of CASP8 regulatory sequences as an alternative mechanism through which expression could be silenced, as documented for several tumor suppressor genes, such as INK4a, CDKN1, CDKN2, PTEN, MLH1, von Hippel-Lindau, and E-cadherin (Baylin et al., Adv. Cancer Res., 1998, 72:141–196; Belinsky et al., Proc. Natl. Acad. Sci. USA, 1998, 95:11891; Whang et al., Proc.Natl.Acad.Sci.USA,1998, 95:5246–5250; Merlo et al., Nature Medicine, 1995, 1:686–692).
(§4) The role of methylation of CASP8 regulatory sequences was tested by treating NB cells with 5-aza-cytidine, a compound that promotes the demethylation of CpG dinucleotides (Merlo et al., Nature Medicine, 1995, 1:686–692). When cells were treated with 10–50 μM 5-aza-cytidine for 2–3 days, caspase-8 expression was activated in the NB8 and NB11 cell lines, but not NB14 (FIG. 6A).

NB8 [3] = assay: 5-aza-cytidine treatment: caspase-8 western blot and apoptosis; type: cell-based, human
From the text: as §3, §4

NB14 = assay: as above; type: cell-based, human; conditions: after 10–50 μM for 2–3 days
From the text: as §3, §4

NB10 [4] = assay: as above; type: cell-based, human
From the text: as §3, §4

neuroblastoma cell lines = assay: Apoptosis after re-establishing caspase-8 expression; type: cell-based, human; conditions: cell lines not expressing caspase-8
From the text: The present invention is based, in part, on the surprising discovery that CASP8 is functionally inactivated in greater than 90% of all MYCN amplified neuroblastoma cell lines analyzed. Neuroblastoma is a pediatric solid tumor, and those cases with MYCN amplification have a particularly poor prognosis. […] This discovery is significant in oncology, because cells in which caspase-8 is not expressed are not capable of undergoing apoptosis mediated by death receptors such as Fas and DR3.

NB3 = assay: Doxorubicin-induced apoptosis (TUNEL); type: cell-based, human; conditions: 0.1 mM doxorubicin for 48 hrs, percentage of cell death by TUNEL
NB7 = assay: Doxorubicin-induced apoptosis (TUNEL); type: cell-based, human
Method: (§5) In order to determine whether exogenous expression of caspase-8 resensitized caspase-8 null NB cells to chemotherapeutic agents, NB7 cells and NB7 cells transduced with pMSCV-Casp8(wt) were treated with doxorubicin. Doxorubicin-induced neuroblastoma apoptosis has previously been linked to the Fas receptor pathway (Fulda et al., Cancer Res., 1997, 57:3823–3829). The NB7 cell line was chosen since it lacks a functional CASP8 gene (FIGS. 4 and 5, Table 2).

NB8 [5] = assay: Doxorubicin-induced apoptosis (TUNEL); type: cell-based, human; conditions: 0.1 mM doxorubicin for 48 hrs
NB5 = assay: Doxorubicin-induced apoptosis (TUNEL); type: cell-based, human; conditions: 0.1 mM doxorubicin for 48 hrs, percentage of cell death by TUNEL
NB cell lines = assay: Sensitivity of NB cell lines to doxorubicin-induced apoptosis; type: cell-based, human
Method: as §5

TNFR p55 (human), sequence (P19438 30-455): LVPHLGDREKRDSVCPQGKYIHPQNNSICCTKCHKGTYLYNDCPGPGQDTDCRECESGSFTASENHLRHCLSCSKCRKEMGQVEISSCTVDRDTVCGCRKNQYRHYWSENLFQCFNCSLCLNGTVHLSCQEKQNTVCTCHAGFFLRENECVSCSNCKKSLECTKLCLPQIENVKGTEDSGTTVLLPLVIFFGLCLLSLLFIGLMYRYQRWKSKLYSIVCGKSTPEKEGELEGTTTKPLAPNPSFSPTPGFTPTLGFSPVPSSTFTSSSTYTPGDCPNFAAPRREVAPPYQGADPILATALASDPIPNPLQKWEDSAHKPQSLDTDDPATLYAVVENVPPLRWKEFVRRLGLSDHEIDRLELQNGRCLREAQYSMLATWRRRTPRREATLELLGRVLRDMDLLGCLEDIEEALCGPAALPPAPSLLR

For `COC(=O)C[C@H](NC(=O)[C@H](C)NC(=O)[C@@H](NC(=O)OCc1ccccc1)C(C)C)C(=O)CF` [zVAD-fmk] (Cbz-Val-Ala-Asp(OMe)-CH2F), the “apoptosis induced by agonistic Fas mAb” value (NB8 [1]) was “blocked” and the “apoptosis induced by agonistic Fas mAb” value (NB10 [2]) was “blocked”.

Compound TNF-α (ligand) has an apoptosis of NB7 cells lacking caspase-8, five hours after TNF-α/CHX treatment (annexin-V staining) (TNFR p55 (human)) of 5% and an apoptosis of NB7 cells transduced with pMSCV-Casp8(wt), five hours after TNF-α/CHX treatment (DAPI, annexin-V staining) (TNFR p55 (human)) of 40%.

`Nc1ncn([C@@H]2O[C@H](CO)[C@@H](O)[C@H]2O)c(=O)n1` [5-aza-cytidine] was tested, and the caspase-8 expression (NB11) was “activated”, the caspase-8 expression (NB8 [3]; 10–50 μM for 2–3 days) was “activated” and the spontaneous apoptosis (NB8 [3]; after 10–50 μM for 2–3 days) was “underwent spontaneous apoptosis”. For the same compound, the spontaneous apoptosis (NB14) was “not”, the caspase-8 expression (NB10 [4]; FIG. 6A) was “results in the expression of caspase-8” and the spontaneous apoptosis (NB10 [4]; after 10–50 μM for 2–3 days) was “underwent spontaneous apoptosis”. The “apoptosis when caspase-8 expression is re-established” value (neuroblastoma cell lines) was “undergo apoptosis”.

In the case of `COc1cccc2c1C(=O)c1c(O)c3c(c(O)c1C2=O)C[C@@](O)(C(=O)CO)C[C@@H]3O[C@H]1C[C@H](N)[C@H](O)[C@H](C)O1` [Doxorubicin, doxorubicin], the “Doxorubicin-induced Apoptosis” value (NB3) is reported as 52 +/− 4%, the “Doxorubicin-induced Apoptosis (+caspase-8)” value (NB7; NB7 +caspase-8, 0.1 mM doxorubicin for 48 hrs, TUNEL) is reported as 42 +/− 2.6% and the “Doxorubicin-induced Apoptosis” value (NB7; NB7, 0.1 mM doxorubicin for 48 hrs, percentage of cell death by TUNEL) is reported as 24 +/− 3%. The “increase in the level of cell death” value (NB7; NB7 cells expressing functional caspase-8 vs parental/pMSCV/pMSCV-Casp8(DN), low levels of doxorubicin) was 70–100%, the “apoptosis after exposure to low levels of doxorubicin” value (NB7; parental NB7 cells and those transduced with pMSCV or pMSCV-Casp8(DN)) was “very limited apoptosis” and the “Doxorubicin-induced Apoptosis (+caspase-8)” value (NB8 [5]; NB8 +caspase-8, TUNEL) was 38 +/− 2%. The “Doxorubicin-induced Apoptosis” value (NB8 [5]; NB8, percentage of cell death by TUNEL) was 18 +/− 2.6%, the “Doxorubicin-induced Apoptosis” value (NB5) was 54 +/− 4.6% and the “sensitization to doxorubicin-induced apoptosis” value (NB cell lines; NB cell lines (e.g., NB16 and NB21) expressing caspase-8) was “more sensitized”. The “sensitization to doxorubicin-induced apoptosis” value (NB cell lines; cell lines that do not express caspase-8, regardless of Fas/CD95 status) was “not sensitized”.
